According to patent US11339193B2, “CDP protein secretion inhibitors” (KEZAR LIFE SCIENCES, priority 2018, dated 2022):
Where two headings read alike, the source gives them in different places. Numbered stars: 1 amine (or outer) side, 2 acyl side, 3 side chain; on linkers, the order of the positions; unused ones are H or OH. Square brackets hold non-standard residues; d marks the D form. Peptide text beside a SMILES is read from it. NMeAla(5-Cl-benzothien-3-yl) = CN[C@@H](Cc1csc2ccc(Cl)cc12)C(=O)O; X18 = Cc1ccc(Cn2cc(C[C@@H](C(=O)[*:2])N(C)[*:1])c3ccccc32)cc1; Ala(1-cyclohexenyl) = N[C@@H](CC1=CCCCC1)C(=O)O; Butanoyl(2R-oxy,4-CN) = N#CCC[C@@H](O)C(=O)O; X21 = CN([C@@H](CC1=CCCC1)C(=O)[*:2])[*:1]; Abu(4,4,4-F3) = N[C@@H](CC(F)(F)F)C(=O)O; X12 = O=C([C@H](CC1=CCCC1)N[*:1])[*:2]; NMeL = CN[C@@H](CC(C)C)C(=O)O; NMeA = CN[C@@H](C)C(=O)O

Legend:
Type in all cases: cell-based
[1] = tested on: NCI-H929 multiple myeloma cell line; assay: H929 assay (cell viability, Celltiter-Glo); conditions: Homo sapiens, NCI-H929, read-out: H929 EC50
Method: The human multiple myeloma cell line NCI-H929 was cultured in Advanced RPMI 1640 media (Gibco@) supplemented with 6% fetal bovine serum, 2 mM Glutamine, and 1× Penicillin/Streptomycin. On the day of assay, cells were resuspended in RPMI 1640 media supplemented with 10% fetal bovine serum, 2 mM Glutamine, and 1× Penicillin/Streptmycin and plated in 384-well tissue culture plates and treated with compound dilutions in DMSO/media. Plates were incubated at 37° C., 5% CO2 for 48 hours. After 48 hours, Celltiter-Glo@ (Promega) was added to each well and luciferase signal was quantified using Tecan Infinite M1000 Pro for cell viability determination.

[2] = tested on: Prl-ss+10aa/Gaussia Luciferase; assay: Prl-ss-Gluc assay (constitutively active or 24 hr Dox inducible); conditions: read-out: Prl IC50
Text: Constitutively Active Prl-ss-Gluc Assay
Flp-In 293 T-REx™ cells were transfected with pcDNA™5/FRT plasmid inserted with cDNA encoding Gaussia Luciferase fused to the 3′ end of cDNA encoding Prl signal sequence plus 10 amino acids (N-[…]-C) (SEQ ID NO:4). Transfected cells were selected for resistance to the selectable markers Hygromycin and Blasticidin to create a stable cell line that constitutively expressed the Prlss+10aa/Gaussia Luciferase fusion protein. The day before assay, cells were trypsinized and plated in 384-well tissue culture plates. The next day, culture media was removed from the wells and replaced with fresh media. Compound dilutions in DMSO/media were added to the wells and incubated at 37° C., 5% CO2.
24 hr Dox Inducible Prl-ss-Gluc Assay
(§1) Flp-In 293 T-REx™ cells were transfected with pcDNA™5/FRT/TO plasmid inserted with cDNA encoding Gaussia Luciferase fused to the 3′ end of cDNA encoding Prl signal sequence plus 10 amino acids (N-[…]-C) (SEQ ID NO:5). Transfected cells were selected for resistance to the selectable markers Hygromycin and Blasticidin to create a stable cell line that contained the Prl-ss+10aa/Gaussia Luciferase cDNA insert whose expression was regulated under the T-REx™ system. The day before assay, cells were trypsinized and plated in 384-well tissue culture plates. The next day, compound dilutions in DMSO/media containing doxycycline were added to the wells and incubated at 37° C., 5% CO2.

HER3ss-Gluc = assay: HER3ss assay; conditions: HEK-293T T-rex cells, transient transfection, doxycycline, 24 h; read-out: HER3 ss IC50
Method: The mature domain of secreted luciferase from Gaussia princeps (GLuc) was cloned into pcDNA5/FRT/TO. The signal sequence plus four amino acids of the mature domain from HER3 ([…]) (SEQ ID NO:8) were cloned upstream of GLuc mature domain and used in transient transfection experiment. HEK-293T T-rex cells were cultured in Dulbecco's modified Eagle's medium with 10% FBS at 5% CO2. Cells were plated 1×10e6 cells per well in a 6-well plate and incubated for 6 h. Cells were transiently transfected with HER3ss-Gluc using Lipofectamine 2000 (Invitrogen). After overnight incubation, transfected cells were replated in a clear-bottomed, black 96-well plate at a density of 20,000 cells per well. Six hours after plating, the cells were treated with doxycycline (1 μg/ml) and increasing concentrations of the indicated compounds for 24 h. Secreted luciferase in the conditioned media was quantified by luminescence using the BioLux Gaussia Luciferase Assay Kit (New England Biolabs, Ipswich, Mass., USA) and a SpectraMax M5 plate reader (Molecular Devices).

[3] = tested on: TNFα-FL/Gaussia Luciferase; assay: Dox induced TNFα-FL-Gluc assay; conditions: read-out: TNFa FL Gluc IC50
Text: Dox Induced TNFα-FL-Gluc Assay
Flp-In 293 T-REx™ cells were transfected with pcDNA™5/FRT/TO plasmid inserted with cDNA encoding Gaussia Luciferase fused to the 3′ end of cDNA encoding full length TNFα (amino acids 1-233). Transfected cells were selected for resistance to the selectable markers Hygromycin and Blasticidin to create a stable cell line that contained the TNFα-FL/Gaussia Luciferase cDNA insert whose expression was regulated under the T-REx™ system. The day before assay, cells were trypsinized and plated in 384-well tissue culture plates. The next day, compound dilutions in DMSO/media containing doxycycline were added to the wells and incubated at 37° C., 5% CO2.

[4] = tested on: PD1-ss+10aa/Gaussia Luciferase; assay: Dox induced PD1-ss-Gluc assay; conditions: Flp-In 293 T-REx cells, doxycycline, 24 hours; read-out: PD1ss Gluc IC50
Text: Dox Induced PD1-ss-Gluc Assay
as §1, with “PD1” for “Prl”, “NO:3).” for “NO:5).”, “PD1-ss+10aa/Gaussia” for “Prl-ss+10aa/Gaussia”

[5] = tested on: U266B1 multiple myeloma cell line; assay: U266 assay (cell viability, Celltiter-Glo); conditions: Homo sapiens, U-266; I.A.
Method: Cells were plated in 384-well tissue culture plates and treated with compound dilutions in DMSO/media. Plates were incubated at 37° C., 5% CO2 for 48 hours. After 48 hours, Celltiter-Glo@ (Promega) was added to each well and luciferase signal was quantified using Tecan Infinite M1000 Pro for cell viability determination.

[6] = Flp-In 293 T-REx cells, doxycycline, 24 hours

SMILES | EC50 ([1]; 48 hours, cell viability) [nM] | IC50 ([2]; Flp-In 293 T-REx cells, 24 hours) [nM] | IC50 (HER3ss-Gluc) [nM] | IC50 [3, 6] [nM] | IC50 [4] [nM] | EC50 [5] [nM] | EC50 ([1]; I.A.) [nM] | IC50 ([2]; I.A.) [nM] | IC50 ([3]; I.A.) [nM]
Cc1ccc(Cn2cc(C[C@H]3C(=O)N[C@@H](CC(C)C)C(=O)N(C)[C@@H](C)C(=O)O[C@H](CCC#N)C(=O)N[C@@H](CC(F)(F)F)C(=O)N(C)[C@@H](CC(C)C)C(=O)N[C@@H](CC(F)(F)F)C(=O)N3C)c3ccccc32)cc1 [C-83] (cyclo(L[NMeA][Butanoyl(2R-oxy,4-CN)][Abu(4,4,4-F3)][NMeL][Abu(4,4,4-F3)][X18])) | 603 | 1090 | 81 | 103 | 42 | > 25000 | – | – | –
CC(C)C[C@@H]1NC(=O)[C@H](Cc2csc3ccc(Cl)cc23)N(C)C(=O)[C@H](CC2=CCCC2)NC(=O)[C@H](CC(C)C)N(C)C(=O)[C@H](CC2=CCCCC2)NC(=O)[C@@H](CCC#N)OC(=O)[C@H](C)N(C)C1=O [C-86] (cyclo(L[NMeA][Butanoyl(2R-oxy,4-CN)][Ala(1-cyclohexenyl)][NMeL][X12][NMeAla(5-Cl-benzothien-3-yl)])) | – | – | 10 | – | 567 | > 25000 | > 25000 | > 25000 | > 25000
CC(C)C[C@@H]1NC(=O)[C@H](Cc2csc3ccc(Cl)cc23)N(C)C(=O)[C@H](CC2=CCCCC2)NC(=O)[C@H](CC(C)C)N(C)C(=O)[C@H](CC2=CCCC2)NC(=O)[C@@H](CCC#N)OC(=O)[C@H](C)N(C)C1=O [C-85] (cyclo(L[NMeA][Butanoyl(2R-oxy,4-CN)][X12][NMeL][Ala(1-cyclohexenyl)][NMeAla(5-Cl-benzothien-3-yl)])) | – | – | 7 | – | 1140 | > 25000 | > 25000 | > 25000 | > 25000

The remaining lines, values ahead:

EC50 ([1]; 48 hours, cell viability) [nM] | IC50 ([2]; Flp-In 293 T-REx cells, 24 hours) [nM] | IC50 (HER3ss-Gluc) [nM] | IC50 [3, 6] [nM] | IC50 [4] [nM] | EC50 [5] [nM] | EC50 ([1]; I.A.) [nM] | IC50 ([2]; I.A.) [nM] | IC50 ([3]; I.A.) [nM] | SMILES
– | – | 88 | – | 934 | > 25000 | > 25000 | > 25000 | > 25000 | CC(C)C[C@@H]1NC(=O)[C@H](Cc2csc3ccc(Cl)cc23)N(C)C(=O)[C@H](CC(C)C)NC(=O)[C@H](CC2=CCCC2)N(C)C(=O)[C@H](CC(F)(F)F)NC(=O)[C@@H](CCC#N)OC(=O)[C@H](C)N(C)C1=O [C-81] (cyclo(L[NMeA][Butanoyl(2R-oxy,4-CN)][Abu(4,4,4-F3)][X21]L[NMeAla(5-Cl-benzothien-3-yl)]))
3730 | – | 33 | 879 | 172 | > 25000 | – | > 25000 | – | CC(C)C[C@@H]1NC(=O)[C@H](CC(C)C)N(C)C(=O)[C@H](CC(F)(F)F)NC(=O)[C@@H](CCC#N)OC(=O)[C@H](C)N(C)C(=O)[C@H](CC2=CCCC2)NC(=O)[C@H](Cc2csc3ccc(Cl)cc23)N(C)C1=O [C-89] (cyclo(L[NMeAla(5-Cl-benzothien-3-yl)][X12][NMeA][Butanoyl(2R-oxy,4-CN)][Abu(4,4,4-F3)][NMeL]))
5640 | – | 65 | 1380 | 149 | > 25000 | – | > 25000 | – | CC(C)C[C@@H]1NC(=O)[C@H](CC(C)C)N(C)C(=O)[C@H](CC(F)(F)F)NC(=O)[C@@H](CCC#N)OC(=O)[C@H](C)N(C)C(=O)[C@H](CC2=CCCCC2)NC(=O)[C@H](Cc2csc3ccc(Cl)cc23)N(C)C1=O [C-88] (cyclo(L[NMeAla(5-Cl-benzothien-3-yl)][Ala(1-cyclohexenyl)][NMeA][Butanoyl(2R-oxy,4-CN)][Abu(4,4,4-F3)][NMeL]))
